Experimental data: paper PMC8231113, “Protein Secondary Structure Affects Glycan Clustering in Native Mass Spectrometry” (Life, 2021)
Where two headings read alike, the source gives them in different places.

Tests used:
GII.4 Saga P dimer = GII.4 Saga P dimer (Norovirus GII.4 (human norovirus), UniProt B5BTR7); assay: Native MS, specific glycan binding to P dimer after reference protein correction; parameters: species or system human norovirus (hNoV); conditions: for Kd: read-out: KD for HBGA B
Procedure: (§1) Prior to MS analysis, purified P dimers were buffer exchanged to 150 mM ammonium acetate (Sigma-Aldrich, reagent grade ≥98%) at pH 7 via centrifugal filter units at 12,000× g at 4 °C (Vivaspin 500, MWCO 10000, Sartorius). Glycans for native MS analysis were mixed with 1 µM (per monomer) purified GII.4 Saga P dimer and 3 µM of the reference proteins at indicated concentrations. Native mass spectra were measured at room temperature in positive ion mode on a high mass modified LCT Premier mass spectrometer (Waters/Micromass, UK and MS Vision, the Netherlands) with a nano-ESI source. In house-made gold-coated electrospray capillaries were used for direct-sample infusion without any accessory chromatographic separation. The voltages and pressures were optimized for non-covalent protein complexes. The gas pressure used in the source hexapole was set between 6.5 and 6.8 × 10^−2 mbar argon optimized for minimal complex dissociation and the backing pressure of the source roughing pump was set between 7.0 and 8.5 mbar. Spectra were recorded with applied voltages for the capillary and cone of 1.20 kV and 240 V, respectively. Note that charge state distributions for P dimers were sometimes slightly shifted as was the degree of glycan clustering per charge state. These changes were highly variable and not quantifiable.
(§2) For calibration of the raw data, a 25 mg/mL cesium iodide spectrum from the same day was used. MassLynx V4.1 (Waters, Manchester, UK) was used to assign peak series to protein species and to determine the mass after minimal smoothing. Furthermore, OriginPro 2016 SR2 (OriginLab, Northampton, MA, USA) was used for spectral deconvolution and curve fitting. Correction for nonspecific protein-ligand clustering was performed as described. Corrected peak areas were averaged and normalized to the free-protein signal. Data were based on at least three independent measurements. Python code Panda and Numpy package were used to calculate the specific binding of P dimers according to the glycan clustering ratio obtained from the selected reference protein candidates. Seaborn and matplotlib.pyplot package were imported into a python script to plot the results. The module of sklearn.linear model was applied for linear regression. The matplotlib and heatmap package were used to plot the heatmap.
Data from native ESI MS measurements were translated into dissociation constants (KD values). The detailed calculations were based on the equations listed below. A protein (P) and a glycan ligand (L) form a complex through non-covalent interactions leading to a reversible association described by (Equation (1)):(1) P+L⇌PL when equilibrium is reached, the KD can be calculated directly from the concentrations via the law of mass action (Equation (2)):(2) KD=[Pfree][Lfree]/[PL]
(§3) Theoretically, the KD is calculated by measuring the concentration of the three components (Pfree, Lfree, PL) in solution. Usually, these values are only indirectly accessible because they require ligand titration up to binding saturation. However, native MS allows for the directly measurement of Pfree and PL, from which Lfree can be calculated using the input concentrations. In the present work, the non-covalent interaction was measured in the gas phase assuming identical ESI and detection efficiency for free and glycan-associated proteins, both for the analyte and the reference protein. […] For P dimers, the equations reflect glycan binding to the individual monomers assuming that binding sites on each monomer are equal and independent.
Using R described in Equation (3), the KD calculation can be re-written into Equation (4) with the known initial concentration of glycan ligand [L0] and protein [P0], adapted from Sun et al.:(3) R=PLequil∕Pequil=∑nA(PL^n+)∕n∕∑nA(P^n+)∕n (4) KD =L0−RP0/1+R/R […]

[1] = target: T1, L-lactic dehydrogenase from rabbit muscle (LDH) (Oryctolagus cuniculus, UniProt P13491); assay: Native MS glycan clustering to reference protein LDH; assay type: binding; conditions: on LDH
T1 construct: L-lactic dehydrogenase from rabbit muscle (LDH, CAS number 9001-60-9); purchased Sigma-Aldrich (Merck, Germany); host or cells: rabbit muscle
Procedure: as §1, §2, §3
Using R described in Equation (3), the KD calculation can be re-written into Equation (4) with the known initial concentration of glycan ligand [L0] and protein [P0], adapted from Sun et al.:(3) R=PLequil∕Pequil=∑nA(PL^n+)∕n∕∑nA(P^n+)∕n (4) KD =L0−RP0/1+R/R
For the carbohydrate-binding experiments, it was essential to keep the initial protein concentrations and pH value constant during the analysis of the protein-carbohydrate solutions. While acidification occurs in any ESI droplet, the remaining solution in the capillary changes pH over time. Therefore, accumulated spectra were obtained within 10 min after the voltages were applied to minimize the influence of pH changes during the measurements. […]

[2] = target: wildtype GII.4 Saga P dimer; conditions: wildtype P dimer; read-out: KD determined by NMR; cited from earlier work

## CC(=O)N[C@H]1C(O)O[C@H](CO)[C@@H](O)[C@@H]1O[C@@H]1O[C@H](CO)[C@H](O)[C@H](O[C@H]2O[C@H](CO)[C@H](O)[C@H](O)[C@H]2O)[C@H]1O[C@@H]1O[C@@H](C)[C@@H](O)[C@@H](O)[C@@H]1O (some centres unmarked) [HBGA B, Galα1-3(Fucα1-2)Galβ1-3GlcNAc]
GII.4 Saga P dimer; Gb4: any listed glycan concentration, HBGA B: 500 µM
  specific binding after ADH based protein clustering correction: a single binding event
GII.4 Saga P dimer; correction with ref. protein ADH
  Kd: 24000 ± 16000 µM
GII.4 Saga P dimer; correction with ref. protein CA
  Kd: 400 ± 100 µM
GII.4 Saga P dimer; correction with ref. protein Cyt c
  Kd: 160 ± 50 µM
GII.4 Saga P dimer; correction with ref. protein GFP
  Kd: 900 ± 350 µM
GII.4 Saga P dimer; correction with ref. protein Myo
  Kd: 250 ± 100 µM
GII.4 Saga P dimer; correction with ref. protein Ubq
  Kd: 200 ± 130 µM
GII.4 Saga P dimer; ref. protein ADH, glycan 100 µM
  Bound number of carbohydrates on Saga P dimer: 0
GII.4 Saga P dimer; ref. protein ADH, glycan 200 µM
  Bound number of carbohydrates on Saga P dimer: 0
GII.4 Saga P dimer; ref. protein ADH, glycan 300 µM
  Bound number of carbohydrates on Saga P dimer: 0
GII.4 Saga P dimer; ref. protein ADH, glycan 400 µM
  Bound number of carbohydrates on Saga P dimer: 0
GII.4 Saga P dimer; ref. protein ADH, glycan 500 µM
  Bound number of carbohydrates on Saga P dimer: 1
GII.4 Saga P dimer; ref. protein CA, glycan 100 µM
  Bound number of carbohydrates on Saga P dimer: 1
GII.4 Saga P dimer; ref. protein CA, glycan 200 µM
  Bound number of carbohydrates on Saga P dimer: 2
GII.4 Saga P dimer; ref. protein CA, glycan 300 µM
  Bound number of carbohydrates on Saga P dimer: 2
GII.4 Saga P dimer; ref. protein CA, glycan 400 µM
  Bound number of carbohydrates on Saga P dimer: 2
GII.4 Saga P dimer; ref. protein CA, glycan 500 µM
  Bound number of carbohydrates on Saga P dimer: 2
GII.4 Saga P dimer; ref. protein Cyto c, glycan 100 µM
  Bound number of carbohydrates on Saga P dimer: 2
GII.4 Saga P dimer; ref. protein Cyto c, glycan 200 µM
  Bound number of carbohydrates on Saga P dimer: 3
GII.4 Saga P dimer; ref. protein Cyto c, glycan 300 µM
  Bound number of carbohydrates on Saga P dimer: 4
GII.4 Saga P dimer; ref. protein Cyto c, glycan 400 µM
  Bound number of carbohydrates on Saga P dimer: 4
GII.4 Saga P dimer; ref. protein Cyto c, glycan 500 µM
  Bound number of carbohydrates on Saga P dimer: 4
GII.4 Saga P dimer; ref. protein GFP, glycan 100 µM
  Bound number of carbohydrates on Saga P dimer: 1
GII.4 Saga P dimer; ref. protein GFP, glycan 200 µM
  Bound number of carbohydrates on Saga P dimer: 1
GII.4 Saga P dimer; ref. protein GFP, glycan 300 µM
  Bound number of carbohydrates on Saga P dimer: 2
GII.4 Saga P dimer; ref. protein GFP, glycan 400 µM
  Bound number of carbohydrates on Saga P dimer: 2
GII.4 Saga P dimer; ref. protein GFP, glycan 500 µM
  Bound number of carbohydrates on Saga P dimer: 2
GII.4 Saga P dimer; ref. protein LDH, glycan 100 µM
  Bound number of carbohydrates on Saga P dimer: 0
GII.4 Saga P dimer; ref. protein LDH, glycan 200 µM
  Bound number of carbohydrates on Saga P dimer: 0
GII.4 Saga P dimer; ref. protein LDH, glycan 300 µM
  Bound number of carbohydrates on Saga P dimer: 0
GII.4 Saga P dimer; ref. protein LDH, glycan 400 µM
  Bound number of carbohydrates on Saga P dimer: 0
GII.4 Saga P dimer; ref. protein LDH, glycan 500 µM
  Bound number of carbohydrates on Saga P dimer: 1
GII.4 Saga P dimer; ref. protein Myo, glycan 100 µM
  Bound number of carbohydrates on Saga P dimer: 2
GII.4 Saga P dimer; ref. protein Myo, glycan 200 µM
  Bound number of carbohydrates on Saga P dimer: 3
GII.4 Saga P dimer; ref. protein Myo, glycan 300 µM
  Bound number of carbohydrates on Saga P dimer: 3
GII.4 Saga P dimer; ref. protein Myo, glycan 400 µM
  Bound number of carbohydrates on Saga P dimer: 3
GII.4 Saga P dimer; ref. protein Myo, glycan 500 µM
  Bound number of carbohydrates on Saga P dimer: 4
GII.4 Saga P dimer; ref. protein Ubq, glycan 100 µM
  Bound number of carbohydrates on Saga P dimer: 2
GII.4 Saga P dimer; ref. protein Ubq, glycan 200 µM
  Bound number of carbohydrates on Saga P dimer: 3
GII.4 Saga P dimer; ref. protein Ubq, glycan 300 µM
  Bound number of carbohydrates on Saga P dimer: 4
GII.4 Saga P dimer; ref. protein Ubq, glycan 400 µM
  Bound number of carbohydrates on Saga P dimer: 4
GII.4 Saga P dimer; ref. protein Ubq, glycan 500 µM
  Bound number of carbohydrates on Saga P dimer: 4
GII.4 Saga P dimer; ref. protein apo-TFF, glycan 100 µM
  Bound number of carbohydrates on Saga P dimer: 1
GII.4 Saga P dimer; ref. protein apo-TFF, glycan 200 µM
  Bound number of carbohydrates on Saga P dimer: 1
GII.4 Saga P dimer; ref. protein apo-TFF, glycan 300 µM
  Bound number of carbohydrates on Saga P dimer: 1
GII.4 Saga P dimer; ref. protein apo-TFF, glycan 400 µM
  Bound number of carbohydrates on Saga P dimer: 1
GII.4 Saga P dimer; ref. protein apo-TFF, glycan 500 µM
  Bound number of carbohydrates on Saga P dimer: 2
[1]; 100 µM glycan
  Glycan-Clustering Ratio R: 0.38±0.03
[1]; 200 µM glycan
  Glycan-Clustering Ratio R: 0.54±0.05
[1]; 300 µM glycan
  Glycan-Clustering Ratio R: 0.69±0.02
[1]; 400 µM glycan
  Glycan-Clustering Ratio R: 0.77±0.05
[1]; 500 µM glycan
  Glycan-Clustering Ratio R: 1.02 ± 0.04
[2]
  Kd: 12000 µM
